From patent publication US8900564B2, “Vaccine composition comprising an antigen and a peptide having adjuvant properties” (Valneva Austria GmbH, priority 2000, dated 2014)
“Also recorded” adds a separate entry of the source. Ends that are not written are not given here.

Assays:
human neutrophils = conditions: via cell surface calreticulin; cited from earlier work
Staphylococcus aureus = conditions: Staphylococcus aureus-infected mice; cited from earlier work
[1] = test system: IFN-γ-producing specific cells (lymph node cells); assay: Induction of peptide-specific T cell responses in vivo, IFN-γ ELISpot of lymph node cells after vaccination with TRP-2 peptide; design: species or system mice (C57BL/6)
Description: For testing the ability of the (synthetic antimicrobial) peptide KLKLLLLLKLK (SEQ ID NO: 1) to enhance the induction of peptide-specific T cell responses in vivo, groups of 4 mice (C57BL/6, female, 8 weeks of age, H-2b) were injected subcutaneously into the flank 3 times (days 0, 28, and 56), with an antigenic melanoma peptide (100 μg) derived from TRP-2 (mouse tyrosinase related protein-2) alone or in combination with either poly-Larginine or the (synthetic antimicrobial) peptide KLKLLL. LKLK (SEQ ID NO: 1) as “carrier peptide”. The amounts of the (synthetic antimicrobial) peptide KLKLLLLLKLK (SEQ ID NO: 1) used represent four different amounts at concentrations representing the equal amount (100 μg) of poly-L-arginine in terms of μg, the equal (168 μg), the double (336 μg) and the triple (504 μg) amount of poly-L-arginine in terms of positive charges. The groups of mice were injected as follows (amounts indicated/per mouse). • (1) 100 μg peptide • (2) 100 μg peptide+100 μg poly-L-arginine (pR 60) • (3) 100 μg peptide+100 μg KLKLLLLLKLK (SEQ ID NO: 1) • (4) 100 μg peptide+168 μg KLKLLLLLKLK (SEQ ID NO: 1) • (5) 100 μg peptide+336 μg KLKLLLLLKLK (SEQ ID NO: 1) • (6) 100 μg peptide+504 μg KLKLLLLLKLK (SEQ ID NO: 1) […]

[2] = test system: P388D1 cells (murine monocyte-macrophage antigen presenting cell line); assay: TRANSloading of murine macrophages: uptake of fluorescein-tagged antigenic peptide with carrier peptide, flow cytometry; format: cell-based; conditions: Example 1, FIG. 1; 2 μg antigenic peptide; carrier at 101.7, 50.9 and 5.09 nmol positive charges; 1 h at 37° C.
From the text: To test if the (synthetic antimicrobial) peptide KLKLLLLLKLK (SEQ ID NO: 1) is able to function as “carrier-peptide” for antigens, to TRANSload APCs in vitro, which means enhancing the antigen uptake into APCs, a fluorescently labelled peptide was used as antigenic peptide. It was mixed with diverse concentrations of KLKLLLLLKLK (SEQ ID NO: 1) and other previously described “carrier-peptides” as indicated.
To compare the efficiency of peptide delivery of these diverse “carrier-peptides”, the amount of peptide uptake into APCs was monitored by incubating P388D1 cells (murine monocyte-macrophage antigen presenting cell line; purchased from ATCC (TIB-63)) for 1 h at 37° C. with a constant amount of fluorescein-tagged peptide alone or in combination with diverse “carrier-peptides” at concentrations indicated. Before analysing the cells by flow cytometry, the cells were washed extensively to remove free peptide. The relative amount of fluorescein-tagged peptide taken up by the cells was measured by flow cytometry.
The antigenic peptide used is an influenza-haemagglutinin-derived MHC class I (Kd) binding peptide (Buschle, M. (1997)). 2 μg of this fluorescein-tagged antigenic peptide (LFEAIEGFI) (SEQ ID NO:22) were mixed with 3 different amounts of each carrier peptide tested at concentrations representing 101.7, 50.9 and 5.09 nmol positive charges. […]

Substance	superoxide anion (O2−) production (human neutrophils)	chemotherapeutic activity (Staphylococcus aureus)	IFN-γ-producing T cells specific for the carrier peptide itself, ELISpot ([1]; ELISpot-assay)	IFN-γ-producing specific cells (TRP-2 peptide-specific), ELISpot ([1]; FIG. 3, s.c. days 0, 28, 56, 100 μg TRP-2 peptide plus 100-504 μg carrier, 12 days after 3rd vaccination, versus peptide alone or with poly-L-arginine)	fluorescence of TRANSloaded cells (uptake of fluorescein-tagged peptide LFEAIEGFI) [2]
KLKLLLLLKLK-NH2 [synthetic antimicrobial peptide, amidated form]	activated to produce the superoxide anion	significant chemotherapeutic activity			
KLKLLLLLKLK [synthetic antimicrobial peptide used as carrier peptide/adjuvant]			does not elicit IFN-γ-producing peptide-specific T cells	many more IFN-γ-producing specific cells; also recorded: enhances the induction of peptide-specific T cell responses in vivo	high and intense fluorescence
